Source: patent publication US20210040074A1 (The United States of America,as represented by the …, priority 2018, published 2021)
Values belong to the compound of their own block, whether it stands above or below them.

Experiments:
D4R = target: T1, D4R (Homo sapiens, UniProt P21917); test: D4 β-arrestin recruitment assay (DiscoverX PathHunter, CHO-K1 cells); type: cell-based; parameters: inferred from the same PathHunter system described for D1R and D5R; host or cells: CHO-K1; conditions: for D4 Beta-Arrestin: DA + 50 μM PAM, Fold Change EC50: fold change of dopamine EC50, 50 μM compound; for Dopamine D4-β-arrestin Assay: DA + 50 μM PAM, Fold Change EC50: Table 7, 50 μM compound; for DA + 50 μM PAM, Fold Change EC50: fold change of DA EC50 with 50 μM PAM, Dopamine D4-β-arrestin Assay
T1 sequence (P21917 1-419): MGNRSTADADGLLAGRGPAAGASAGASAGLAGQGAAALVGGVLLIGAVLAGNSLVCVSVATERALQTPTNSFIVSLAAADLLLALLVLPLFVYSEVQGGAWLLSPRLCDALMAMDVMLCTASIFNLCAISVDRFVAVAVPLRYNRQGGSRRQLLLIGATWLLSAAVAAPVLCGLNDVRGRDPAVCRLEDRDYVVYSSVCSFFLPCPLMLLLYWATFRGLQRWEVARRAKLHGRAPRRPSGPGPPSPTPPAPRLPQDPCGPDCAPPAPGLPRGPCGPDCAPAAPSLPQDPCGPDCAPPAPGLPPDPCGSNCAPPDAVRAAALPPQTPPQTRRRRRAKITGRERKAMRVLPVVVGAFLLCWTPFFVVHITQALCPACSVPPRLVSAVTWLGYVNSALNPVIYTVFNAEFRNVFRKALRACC
Experimental: (§1) β-arrestin Recruitment Assay. Agonist-mediated recruitment of β-arrestin-2 to all five DARs was determined using the DiscoveRx PathHunter complementation assay (DiscoverX Inc, Fremont, Calif.), as previously described (Free, et. al., 2014; Conroy, et. al., 2015). […] Following 18-24 h of incubation, the cells were treated with the indicated concentrations of compound in PBS buffer containing 0.2 mM sodium metabisulfite, and incubated at 37° C. for 90 min. DiscoverX reagent was added to cells according to the manufacturer's protocol, followed by a 60 min incubation in the dark at room temperature. Luminescence was measured on a Hamamatsu FDSS μ-Cell reader (Hamamatsu, Bridgewater, N.J.) and data were collected using the FDSS software.

D5 [1] = target: T2, D5 (Homo sapiens, UniProt P21918); test: D5R β-arrestin recruitment assay (DiscoverX PathHunter, CHO cells); type: cell-based; parameters: host or cells: CHO-K1; conditions: for PAM activity at the D5 receptor / fold change of dopamine EC50 for β-arrestin recruitment to D5R / Dopamine D5-β-arrestin Assay: DA + 50 μM PAM, Fold Change EC50: 50 μM compound; for D5 Beta-Arrestin: DA + 50 μM PAM, Fold Change EC50: fold change of dopamine EC50, 50 μM compound; for Dopamine D5-β-arrestin Assay: DA + 50 μM PAM, Fold Change EC50: Table 6; for DA + 50 μM PAM, Fold Change EC50: fold change of DA EC50 with 50 μM PAM, Dopamine D5-β-arrestin Assay
T2 sequence (P21918 whole entry): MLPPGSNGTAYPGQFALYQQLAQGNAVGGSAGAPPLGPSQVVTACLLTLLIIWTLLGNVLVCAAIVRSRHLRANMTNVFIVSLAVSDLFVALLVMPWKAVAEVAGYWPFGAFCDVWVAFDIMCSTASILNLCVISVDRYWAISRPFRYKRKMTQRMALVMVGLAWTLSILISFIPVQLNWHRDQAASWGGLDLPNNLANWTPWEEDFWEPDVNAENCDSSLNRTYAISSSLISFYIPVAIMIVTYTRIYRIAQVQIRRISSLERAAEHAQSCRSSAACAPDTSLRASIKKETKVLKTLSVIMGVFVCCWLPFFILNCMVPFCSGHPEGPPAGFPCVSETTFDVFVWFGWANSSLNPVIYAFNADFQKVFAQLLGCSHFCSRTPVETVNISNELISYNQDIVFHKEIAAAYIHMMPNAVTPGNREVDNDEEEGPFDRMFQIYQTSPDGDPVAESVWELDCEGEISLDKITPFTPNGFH
Experimental: as §1, with “Assay.” for “Assay. Agonist-mediated recruitment of β-arrestin-2 to all five DARs was determined using the DiscoveRx PathHunter complementation assay (DiscoverX Inc, Fremont, Calif.), as previously described (Free, et. al., 2014; Conroy, et. al., 2015).”
Each PAM was also examined in the absence of DA as an agonist, as indicated.

human D1R = human D1R (Homo sapiens, UniProt P21728); test: D1R β-arrestin recruitment assay (DiscoverX PathHunter, CHO-K1 cells); conditions: for Dopamine D1-β-arrestin Assay: DA + 50 μM PAM, Fold Change EC50: Table 5, 50 μM compound; for DA + 50 μM PAM, Fold Change EC50: fold change of DA EC50 with 50 μM PAM, Dopamine D1-β-arrestin Assay
Sequence of human D1R (P21728 whole entry): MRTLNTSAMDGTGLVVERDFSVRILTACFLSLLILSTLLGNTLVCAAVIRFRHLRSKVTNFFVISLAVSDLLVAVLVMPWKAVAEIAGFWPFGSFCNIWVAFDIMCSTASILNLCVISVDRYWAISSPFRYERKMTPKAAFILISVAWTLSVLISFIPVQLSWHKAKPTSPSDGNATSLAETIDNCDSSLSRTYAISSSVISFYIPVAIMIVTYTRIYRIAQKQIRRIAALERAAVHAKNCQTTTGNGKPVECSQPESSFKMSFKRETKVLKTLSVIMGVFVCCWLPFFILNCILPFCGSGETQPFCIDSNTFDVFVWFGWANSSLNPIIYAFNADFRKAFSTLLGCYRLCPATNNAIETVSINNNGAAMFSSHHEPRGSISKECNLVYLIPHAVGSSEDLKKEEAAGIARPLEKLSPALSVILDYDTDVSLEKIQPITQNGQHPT
Experimental: β-arrestin Recruitment Assay. […] Following 18-24 h of incubation, the cells were treated with the indicated concentrations of compound in PBS buffer containing 0.2 mM sodium metabisulfite, and incubated at 37° C. for 90 min. DiscoverX reagent was added to cells according to the manufacturer's protocol, followed by a 60 min incubation in the dark at room temperature. Luminescence was measured on a Hamamatsu FDSS μ-Cell reader (Hamamatsu, Bridgewater, N.J.) and data were collected using the FDSS software.
The DiscoverX PathHunter β-Arrestin Assay was used to measure β-arrestin reuitment to the D1R following the manufacturer's instructions.

D5 [2] = target: T2, D5; test: D5 cAMP assay; conditions: fold change of dopamine EC50, 50 μM compound
Experimental: cAMP Accumulation Assay. Assays were performed on D1R-HEK293 (Codex Biosolutions, Gaithersburg, Md.) cells stably expressing the human D1R. HEK293 cell lines were maintained in Dulbecco's modified Eagles medium, supplemented with 10% fetal bovine serum, 100 U/ml penicillin, 100 μg/ml streptomycin, 1 mM sodium pyruvate, and 250 μg/ml G418 and incubated at 37° C., 5% CO2, and 90% humidity. […] After 18-24 h incubation at 37° C., 5% CO2, and 90% humidity, the media was removed and replaced with 5 μL/well PBS. […] Briefly, antibody and working solution was added to each well according to the manufacturer's protocol, and incubated in the dark at room temperature for 60 min. Following incubation, enzyme acceptor reagent was added to the plates and luminescence (RLU) was measured (FDSS μCell, Hamamatsu Photonics K. K., Bridgewater, N.J.) following a 3 h incubation in the dark at room temperature.

D4 Beta-Arrestin: DA + 50 μM PAM, Fold Change EC50 (D4R): 0.47
PAM activity at the D5 receptor (D5 [1]): none of these analogs have PAM activity
fold change of dopamine EC50 for β-arrestin recruitment to D5R (D5 [1]): 0.8 fold
D5 Beta-Arrestin: DA + 50 μM PAM, Fold Change EC50 (D5 [1]): 0.81
Compound: CC(C)Cc1nc2c(c(=O)c3ccccc3n2C)c(=O)n1-c1ccc(Cl)cc1 [Compound 6]

Emax (human D1R; CHO-K1, read-out: dihydrexidine Emax): 70.5%
Compound: Oc1cc2c(cc1O)[C@H]1c3ccccc3CN[C@@H]1CC2 (racemic) [dihydrexidine, reference compound]

D4 Beta-Arrestin: DA + 50 μM PAM, Fold Change EC50 (D4R): 0.61
D5 Beta-Arrestin: DA + 50 μM PAM, Fold Change EC50 (D5 [1]): 0.77
Compound: COc1ccc(-n2c(C3CCCCC3)nc3c(c(=O)c4ccccc4n3C)c2=O)cc1Cl [Compound 4]

D4 Beta-Arrestin: DA + 50 μM PAM, Fold Change EC50 (D4R): 1.33
D5 Beta-Arrestin: DA + 50 μM PAM, Fold Change EC50 (D5 [1]): 1.51
Compound: COc1ccc(-n2c(C3CCCC3)nc3c(c(=O)c4ccccc4n3C)c2=O)cc1Cl [Compound 15]

Dopamine D1-β-arrestin Assay: DA + 50 μM PAM, Fold Change EC50 (human D1R): 3.85
Dopamine D4-β-arrestin Assay: DA + 50 μM PAM, Fold Change EC50 (D4R): 0.95
Dopamine D5-β-arrestin Assay: DA + 50 μM PAM, Fold Change EC50 (D5 [1]): 1.71
Compound: Cn1c2ccccc2c(=O)c2c(=O)n(C3CCCCCC3)c(C3CCCCC3)nc21

DA + 50 μM PAM, Fold Change EC50 (human D1R): 2.09
DA + 50 μM PAM, Fold Change EC50 (D5 [1]): 0.83
Compound: Cc1ccccc1NC(=O)c1c(NC(=O)c2ccncc2)sc2c1CCC(C)C2 (centres unmarked) [R4=NH-2-MePh; R5=NHCO-4-pyridyl; R6=Me]

Compound: CCCCCc1nc2c(c(=O)c3ccccc3n2C)c(=O)n1C1CCCCCC1 [R1=Cycloheptyl, R2=n-Pentyl, R3=H, X=NMe]
Dopamine D1-β-arrestin Assay: DA + 50 μM PAM, Fold Change EC50 (human D1R): 1.12
Dopamine D4-β-arrestin Assay: DA + 50 μM PAM, Fold Change EC50 (D4R): 1.46
Dopamine D5-β-arrestin Assay: DA + 50 μM PAM, Fold Change EC50 (D5 [1]): 3.89

D4 Beta-Arrestin: DA + 50 μM PAM, Fold Change EC50 (D4R): 1.33
D5 Beta-Arrestin: DA + 50 μM PAM, Fold Change EC50 (D5 [1]): 3.11
Compound: Cc1ccc(-n2c(C3CCCC3)nc3c(c(=O)c4ccccc4n3C)c2=O)cc1 [Compound 10]

DA + 50 μM PAM, Fold Change EC50 (human D1R): 2.19
DA + 50 μM PAM, Fold Change EC50 (D4R): 1.17
DA + 50 μM PAM, Fold Change EC50 (D5 [1]): 1.14
Compound: CC(C)(C)C1CCc2c(sc(NC(=O)c3ccco3)c2C(N)=O)C1 (centres unmarked) [R4=NH2; R5=NHCO-2-furanyl; R6=t-Bu]

Dopamine D1-β-arrestin Assay: DA + 50 μM PAM, Fold Change EC50 (human D1R): 3.47
Dopamine D4-β-arrestin Assay: DA + 50 μM PAM, Fold Change EC50 (D4R): 0.8
Dopamine D5-β-arrestin Assay: DA + 50 μM PAM, Fold Change EC50 (D5 [1]): 7.78
Compound: CCCc1nc2c(c(=O)c3ccccc3n2C)c(=O)n1C1CCCCCC1 [R1=Cycloheptyl, R2=n-Propyl, R3=H, X=NMe]

D4 Beta-Arrestin: DA + 50 μM PAM, Fold Change EC50 (D4R): 1.19
D5 Beta-Arrestin: DA + 50 μM PAM, Fold Change EC50 (D5 [1]): 3.35
Compound: COc1ccc(-n2c(C3CCCCC3)nc3c(c(=O)c4ccccc4n3C)c2=O)cc1 [Compound 27]

D4 Beta-Arrestin: DA + 50 μM PAM, Fold Change EC50 (D4R): 1.46
D5 Beta-Arrestin: DA + 50 μM PAM, Fold Change EC50 (D5 [1]): 4.10
Compound: COc1ccc(-n2c(C3CCCC3)nc3c(c(=O)c4ccccc4n3C)c2=O)cc1 [Compound 11]

DA + 50 μM PAM, Fold Change EC50 (human D1R): 1.88
DA + 50 μM PAM, Fold Change EC50 (D4R): 1.21
DA + 50 μM PAM, Fold Change EC50 (D5 [1]): 1.03
Compound: NC(=O)c1c(NC(=O)c2cccnc2)sc2c1CCCC2 [R4=NH2; R5=NHCO-3-pyridyl; R6=H]

D4 Beta-Arrestin: DA + 50 μM PAM, Fold Change EC50 (D4R): 0.71
D5 Beta-Arrestin: DA + 50 μM PAM, Fold Change EC50 (D5 [1]): 0.66
Compound: Cn1c2ccccc2c(=O)c2c(=O)[nH]c(C3CCCC3)nc21 [Compound 12]

D4 Beta-Arrestin: DA + 50 μM PAM, Fold Change EC50 (D4R): 1.06
D5 cAMP: DA + 50 μM PAM, Fold Change EC50 (D5 [2]): 2.23
PAM activity at the D5 receptor (D5 [1]): none of these analogs have PAM activity
fold change of dopamine EC50 for β-arrestin recruitment to D5R (D5 [1]): 1.3 fold
D5 Beta-Arrestin: DA + 50 μM PAM, Fold Change EC50 (D5 [1]): 1.32
Compound: Cc1ccc(-n2c(CC(C)C)nc3c(c(=O)c4ccccc4n3C)c2=O)cc1 [Compound 5]

D4 Beta-Arrestin: DA + 50 μM PAM, Fold Change EC50 (D4R): 0.61
D5 Beta-Arrestin: DA + 50 μM PAM, Fold Change EC50 (D5 [1]): 2.03
Compound: Cn1c2ccccc2c(=O)c2c(=O)n(-c3ccc(Cl)cc3)c(C3CCCCC3)nc21 [Compound 3]

D4 Beta-Arrestin: DA + 50 μM PAM, Fold Change EC50 (D4R): 1.26
D5 cAMP: DA + 50 μM PAM, Fold Change EC50 (D5 [2]): 1.26
D5 Beta-Arrestin: DA + 50 μM PAM, Fold Change EC50 (D5 [1]): 4.16
Compound: Cn1c2ccccc2c(=O)c2c(=O)n(-c3ccccc3)c(C3CCCC3)nc21 [Compound 24]
